In ChEMBL document CHEMBL1131587, “Novel peptidyl phosphorus derivatives as inhibitors of human calpain I” (J Med Chem, 1998) one finds IC50 data, which are given here for ten compounds.

SMILES strings stand for the structures. pIC50: −log10 of the molar value.

The target of this test is T1, Calpain-1 catalytic subunit (Homo sapiens, UniProt P07384).
T1 sequence (P07384 whole entry): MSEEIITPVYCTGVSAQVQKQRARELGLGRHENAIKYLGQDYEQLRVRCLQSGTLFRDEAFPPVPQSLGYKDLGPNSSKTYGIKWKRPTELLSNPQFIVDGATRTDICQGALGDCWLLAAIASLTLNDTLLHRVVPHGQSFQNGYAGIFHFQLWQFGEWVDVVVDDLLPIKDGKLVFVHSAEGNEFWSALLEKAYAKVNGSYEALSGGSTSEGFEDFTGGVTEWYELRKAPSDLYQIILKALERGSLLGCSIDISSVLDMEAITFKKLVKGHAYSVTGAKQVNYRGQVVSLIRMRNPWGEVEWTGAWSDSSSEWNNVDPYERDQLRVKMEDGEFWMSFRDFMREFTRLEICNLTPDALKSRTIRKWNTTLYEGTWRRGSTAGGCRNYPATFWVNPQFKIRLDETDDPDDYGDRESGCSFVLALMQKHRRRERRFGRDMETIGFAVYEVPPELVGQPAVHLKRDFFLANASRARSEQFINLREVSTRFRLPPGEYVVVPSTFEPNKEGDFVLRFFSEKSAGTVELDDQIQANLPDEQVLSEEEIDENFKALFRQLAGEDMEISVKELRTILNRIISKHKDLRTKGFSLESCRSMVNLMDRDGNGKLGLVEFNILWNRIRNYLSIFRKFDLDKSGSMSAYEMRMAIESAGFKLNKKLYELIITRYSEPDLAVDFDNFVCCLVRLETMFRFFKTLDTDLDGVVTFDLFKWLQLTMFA
Put plainly: inhibitory activity measured against recombinant human Calpain-I receptor.
As usually defined, the pIC50 is the IC50 on a negative log10 scale, so that one unit is a factor of ten. For the compound `CC(C)C(NC(=O)OCc1ccccc1)C(=O)N[C@H](Cc1ccccc1)C(=O)P(=O)(OCc1ccccc1)OCc1ccccc1` (stereo not given in full), the pIC50 was 5.22. For the compound `COP(=O)(O)C(=O)[C@@H](CC(C)C)NC(=O)C(CC(C)C)NC(=O)OCc1ccccc1` (stereo not given in full), the pIC50 was 5.28. Regarding `COP(=O)(OC)C(=O)[C@@H](CC(C)C)NC(=O)C(CC(C)C)NC(=O)OCc1ccccc1` (stereo not given in full), the pIC50 was 6.37. In the case of `CCOC(=O)[C@@H](CC(C)C)NC(=O)C(CC(C)C)NC(=O)OCc1ccccc1` (stereo not given in full), the pIC50 was 6.22.

Consider `CC(C)CC(NC(=O)OCc1ccccc1)C(=O)N[C@H](CC(C)C)C(=O)P(=O)(c1ccc(Cl)cc1)c1ccc(Cl)cc1` (stereo not given in full), for which the pIC50 was 6.46. With `CCOP(=O)(C(=O)[C@@H](CC(C)C)NC(=O)C(CC(C)C)NC(=O)OCc1ccccc1)c1ccccc1` (stereo not given in full), the pIC50 is 6.43. Turning to `CCCCOP(=O)(OCCCC)C(=O)[C@@H](Cc1ccccc1)NC(=O)C(NC(=O)OCc1ccccc1)C(C)C` (stereo not given in full), the negative-log IC50 (pIC50) was below 5.00. `CC(C)CC(NC(=O)OCc1ccccc1)C(=O)N[C@H](CC(C)C)C(=O)P(C)(C)=O` (stereo not given in full): the pIC50 is below 5.00.

Turning to `CCCCOP(=O)(OCCCC)C(=O)[C@@H](CC(C)C)NC(=O)C(CC(C)C)NC(=O)OCc1ccccc1` (stereo not given in full), the pIC50 is below 5.00.

In the case of `COP(=O)(OC)C(=O)[C@@H](Cc1ccccc1)NC(=O)C(NC(=O)OCc1ccccc1)C(C)C` (stereo not given in full), the pIC50 is 5.13.
